Assay results reported in PubChem BioAssay AID248 (DTP/NCI, 2004).
Values joined by “and” are separate entries in the source; they are usually repeats but may differ in a detail not shown here. Identical values can stand only once. Inconclusive results and toxic doses are left out. No stated cut-off is given here; in the data, active means T/C of 150% or more; inactive means T/C below 125%.

Test system: L1210 leukemia ip in BDF1 mice, survival T/C
Assay: NCI In Vivo Anticancer Drug Screen. Data for tumor model L1210 Leukemia (intraperitoneal) in B6D2F1 (BDF1) mice
Conditions: endpoint: mean survival time, higher = longer survival
Summary of the method: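 Ratio derived from survival: compound-dosed mice over vehicle-dosed mice, all bearing a transplantable tumor.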

[1] = dose: 12.5 mg/kg/injection, schedule: Q01DX009 (ip), vehicle: Klucel (hydroxypropylcellulose) (HPC)
[2] = dose: 25.0 mg/kg/injection, schedule: Q01DX009 (ip), vehicle: Klucel (hydroxypropylcellulose) (HPC)
[3] = dose: 50.0 mg/kg/injection, schedule: Q01DX009 (ip), vehicle: Klucel (hydroxypropylcellulose) (HPC)
[4] = dose: 100.0 mg/kg/injection, schedule: Q01DX009 (ip), vehicle: Klucel (hydroxypropylcellulose) (HPC)
[5] = dose: 100.0 mg/kg/injection, schedule: Q04DX002 (ip), vehicle: saline with Tween-80
[6] = dose: 200.0 mg/kg/injection, schedule: Q04DX002 (ip), vehicle: saline with Tween-80
[7] = dose: 100.0 mg/kg/injection, schedule: Q01DX001 (ip), vehicle: Klucel (hydroxypropylcellulose) (HPC)
[8] = dose: 200.0 mg/kg/injection, schedule: Q01DX001 (ip), vehicle: Klucel (hydroxypropylcellulose) (HPC)
[9] = dose: 400.0 mg/kg/injection, schedule: Q01DX001 (ip), vehicle: Klucel (hydroxypropylcellulose) (HPC)
[10] = dose: 100.0 mg/kg/injection, schedule: Q04DX003 (ip), vehicle: Klucel (hydroxypropylcellulose) (HPC)
[11] = dose: 200.0 mg/kg/injection, schedule: Q01DX009 (ip), vehicle: Klucel (hydroxypropylcellulose) (HPC)
[12] = dose: 200.0 mg/kg/injection, schedule: Q04DX003 (ip), vehicle: Klucel (hydroxypropylcellulose) (HPC)
[13] = dose: 400.0 mg/kg/injection, schedule: Q01DX009 (ip), vehicle: Klucel (hydroxypropylcellulose) (HPC)
[14] = dose: 400.0 mg/kg/injection, schedule: Q04DX003 (ip), vehicle: Klucel (hydroxypropylcellulose) (HPC)
[15] = dose: 25.0 mg/kg/injection, schedule: Q04DX003 (ip), vehicle: Klucel (hydroxypropylcellulose) (HPC)
[16] = dose: 50.0 mg/kg/injection, schedule: Q04DX003 (ip), vehicle: Klucel (hydroxypropylcellulose) (HPC)

Measured: T/C

CC(C)C(=O)NNCc1ccccc1
inactive: [1] 106 % of control | [2] 104 % of control | [3] 97 % of control | [4] 92 % of control

O=c1oc2c(Cl)cc(Cl)cc2cc1-c1nc2ccccc2[nH]1
inactive: [5] 100 % of control | [6] 93 % of control | dose: 400.0 mg/kg/injection, schedule: Q04DX002 (ip), vehicle: saline with Tween-80 96 % of control

CN1C(=O)OC2(CCN(CCCS(=O)(=O)c3ccc(F)cc3)CC2)C1=O
inactive: [7] 92 % of control | [8] 105 % of control | [9] 93 % of control

CC1(C)CC1(Br)c1ccccc1 (centres undefined)
inactive: dose: 100.0 mg/kg/injection, schedule: Q01DX001 (ip), vehicle: saline 96 % of control | dose: 200.0 mg/kg/injection, schedule: Q01DX001 (ip), vehicle: saline 96 % of control | dose: 400.0 mg/kg/injection, schedule: Q01DX001 (ip), vehicle: saline 101 % of control

C=CCn1c(-c2ccc(N(C)C)cc2)nc2c(Cl)ncnc21
inactive: dose: 5.0 mg/kg/injection, schedule: Q01DX009 (ip), vehicle: steriod suspending solution 97 % of control | dose: 9.0 mg/kg/injection, schedule: Q01DX009 (ip), vehicle: steriod suspending solution 98 % of control | dose: 14.0 mg/kg/injection, schedule: Q01DX009 (ip), vehicle: steriod suspending solution 102 % of control | dose: 24.0 mg/kg/injection, schedule: Q01DX009 (ip), vehicle: steriod suspending solution 95 % of control

O=NO.[Co].[NH2-].[NH2-].[NH2-].[NH2-].[NH2-]
inactive: dose: 25.0 mg/kg/injection, schedule: Q04DX003 (ip), vehicle: saline 101 % of control

CCOc1ccccc1NC(=O)Nc1cccc2ccccc12
inactive: [4] 104 % of control | [10] 90 % of control | [11] 96 % of control | [12] 91 % of control | [13] 102 % of control | [14] 88 % of control

CC(=O)[C@H]1CC[C@H]2[C@@H]3C[C@H](C)C4=CC(=O)CC[C@]4(C)[C@@]3(F)[C@@H](O)C[C@]12C
inactive: dose: 12.5 mg/kg/injection, schedule: Q04DX002 (ip), vehicle: Klucel (hydroxypropylcellulose) (HPC) 102 % of control | dose: 25.0 mg/kg/injection, schedule: Q04DX002 (ip), vehicle: Klucel (hydroxypropylcellulose) (HPC) 105 % of control | dose: 50.0 mg/kg/injection, schedule: Q04DX002 (ip), vehicle: Klucel (hydroxypropylcellulose) (HPC) 102 % of control | dose: 100.0 mg/kg/injection, schedule: Q04DX003 (ip), vehicle: steriod suspending solution 96 % of control | dose: 200.0 mg/kg/injection, schedule: Q04DX003 (ip), vehicle: steriod suspending solution 105 % of control | dose: 400.0 mg/kg/injection, schedule: Q04DX003 (ip), vehicle: steriod suspending solution 102 % of control

CC(C)(O)C#N
inactive: dose: 5.0 mg/kg/injection, schedule: Q01DX001 (ip), vehicle: saline 108 % of control | dose: 10.0 mg/kg/injection, schedule: Q01DX001 (ip), vehicle: saline 102 % of control | dose: 15.0 mg/kg/injection, schedule: Q01DX001 (ip), vehicle: saline 104 % of control

C/C(=C\c1ccccc1)[N+](=O)[O-]
inactive: dose: 1.0 mg/kg/injection, schedule: Q04DX003 (ip), vehicle: Klucel (hydroxypropylcellulose) (HPC) 106 % of control | dose: 4.0 mg/kg/injection, schedule: Q01DX009 (ip), vehicle: Klucel (hydroxypropylcellulose) (HPC) 104 % of control | dose: 8.0 mg/kg/injection, schedule: Q01DX009 (ip), vehicle: Klucel (hydroxypropylcellulose) (HPC) 89 % of control | [1] 98 % of control | dose: 12.5 mg/kg/injection, schedule: Q04DX003 (ip), vehicle: Klucel (hydroxypropylcellulose) (HPC) 101 % of control | dose: 16.0 mg/kg/injection, schedule: Q01DX009 (ip), vehicle: Klucel (hydroxypropylcellulose) (HPC) 107 % of control | dose: 20.0 mg/kg/injection, schedule: Q04DX003 (ip), vehicle: Klucel (hydroxypropylcellulose) (HPC) 101 % of control | [2] 102 % of control and 104 % of control | [15] 116 % of control | dose: 32.0 mg/kg/injection, schedule: Q01DX009 (ip), vehicle: Klucel (hydroxypropylcellulose) (HPC) 100 % of control | dose: 40.0 mg/kg/injection, schedule: Q04DX003 (ip), vehicle: Klucel (hydroxypropylcellulose) (HPC) 95 % of control | [3] 101 % of control and 113 % of control | [16] 106 % of control | dose: 64.0 mg/kg/injection, schedule: Q01DX009 (ip), vehicle: Klucel (hydroxypropylcellulose) (HPC) 110 % of control | dose: 80.0 mg/kg/injection, schedule: Q04DX003 (ip), vehicle: Klucel (hydroxypropylcellulose) (HPC) 100 % of control

Cc1cc([N+](=O)[O-])c(Nc2cccc(O)c2)c([N+](=O)[O-])c1
inactive: [4] 108 % of control | [10] 101 % of control | [11] 102 % of control | [12] 95 % of control | [13] 116 % of control | [14] 101 % of control

O=[N+]([O-])c1ccc(Cl)c(OCCBr)c1
inactive: dose: 100.0 mg/kg/injection, schedule: Q01DX009 (ip), vehicle: gum acacia 95 % of control | dose: 200.0 mg/kg/injection, schedule: Q01DX009 (ip), vehicle: gum acacia 94 % of control | dose: 400.0 mg/kg/injection, schedule: Q01DX009 (ip), vehicle: gum acacia 89 % of control

O=C(C1CC1)C1OC1c1ccccc1 (centres undefined)
inactive: [7] 96 % of control | [8] 100 % of control | [9] 94 % of control

NC(N)=NC=O
inactive: [5] 105 % of control | [6] 98 % of control

NC(=O)Nc1cc(NC(N)=O)cc(N(CCO)CCO)c1
inactive: dose: 100.0 mg/kg/injection, schedule: Q01DX009 (ip), vehicle: water 97 % of control | dose: 100.0 mg/kg/injection, schedule: Q04DX003 (ip), vehicle: water 102 % of control | dose: 200.0 mg/kg/injection, schedule: Q01DX009 (ip), vehicle: water 97 % of control | dose: 200.0 mg/kg/injection, schedule: Q04DX003 (ip), vehicle: water 102 % of control | dose: 400.0 mg/kg/injection, schedule: Q01DX009 (ip), vehicle: water 103 % of control | dose: 400.0 mg/kg/injection, schedule: Q04DX003 (ip), vehicle: water 104 % of control

CC(=O)c1cccc(NC(=O)Oc2cc(=O)oc3ccccc23)c1
inactive: [2] 92 % of control | [3] 101 % of control | [4] 101 % of control

CCCC(C)(COC(N)=O)COC(=O)NC(C)C (centres undefined)
inactive: [2] 102 % of control | [15] 101 % of control | [3] 97 % of control | [16] 92 % of control | [4] 94 % of control | [10] 101 % of control | [11] 97 % of control | [12] 95 % of control | [13] 88 % of control | [14] 101 % of control

O=C(NO)C1CCC(C(=O)NO)CC1 (centres undefined)
inactive: dose: 100.0 mg/kg/injection, schedule: Q01DX009 (ip), vehicle: saline with Tween-80 92 % of control | dose: 200.0 mg/kg/injection, schedule: Q01DX009 (ip), vehicle: saline with Tween-80 89 % of control | dose: 400.0 mg/kg/injection, schedule: Q01DX009 (ip), vehicle: saline with Tween-80 89 % of control
